Test results published in US8951972B2, “FGFR1 extracellular domain combination therapies for lung cancer” (Five Prime Therapeutics, Inc., priority 2010, dated 2015).

How the values were obtained:
[1] = test system: H1703 Non-Small Cell Lung Cancer (NSCLC) Xenograft; assay: H1703 non-small cell lung cancer (NSCLC) xenograft model, tumor volume; assay type: in vivo, SCID mice; conditions: day 38; FGFR1-ECD.339-Fc 15 mg/kg i.p. 2x/wk; docetaxel 25 mg/kg i.p. 1x/3 wk x 2 doses
Description: Human non-small cell lung cancer (NSCLC) cell line H1703 was used as the tumor model and was purchased from ATCC (Manassas, Va.; Cat. No. CRL-5889).
Docetaxel was purchased from Toronto Research Chemicals (North York, Ontario, Canada; cat. No. D494420) and formulated in H2O containing 5% Tween 80 and 5% glucose. Docetaxel was administered i.p. at 25 mg/kg (equivalent to about 75 mg/m^2 in a human) once every three weeks for two doses. In combination groups, FGFR1-ECD.339-Fc and docetaxel were either given concurrently or sequentially with FGFR1-ECD.339-Fc given one day before docetaxel or vice versa. Human albumin was purchased from Grifols USA (Los Angeles, Calif.; Cat. No. NDC 61953-0002-1), formulated in PBS at 3 mg/mL and was used as negative control at 300 μg/100 μL/mouse (15 mg/kg).
The tumor volume was measured by external caliper to determine the greatest longitudinal diameter (length) and the greatest transverse diameter (width). The tumor volume was then calculated using the following formula: Tumor volume (mm^3)=(length×width^2)/2

[2] = test system: H520 Non-Small Cell Lung Cancer (NSCLC) Xenograft; assay: H520 non-small cell lung cancer (NSCLC) xenograft model, tumor volume; assay type: in vivo, SCID mice
Description: Dosing for all groups began one day post tumor implantation.
In combination groups, FGFR1-ECD.339-Fc and pemetrexed were administered on the same schedule as when given as single agents, and were administered concurrently on days 1, 4, 8, and 11.

[3] = test system: Colo205 Colon Cancer Xenograft; assay: Colo205 colon cancer xenograft model, tumor volume; assay type: in vivo, SCID mice
Description: Cells were resuspended in a solution of 50%/v PBS and 50%/v Matrigel at a concentration of 25 million cells/ml. Resuspended cells were kept on ice until implantation. […] On day 0, 2.5 million cells/100 μl were implanted over the right flank of the each mouse using a 27G1/2 needle. One day after tumor implantation, the mice were randomized according to the body weight.
Leucovorin (LV) was also purchased from Sigma-Aldrich (Cat. No. F8259) and was formulated in 0.9% Sodium Chloride Injection USP at 2 mg/ml (for 10 mg/kg dosing), to 4 mg/ml (for 20 mg/kg dosing), and to 6 mg/ml (for 30 mg/kg dosing).
In the first experiment, FGFR1-ECD.339-Fc was combined with three different concentrations of 5-FU/leucovorin. In the second experiment, FGFR1-ECD.339-Fc was combined with either bevacizumab or 5-FU/leucovorin, or both. The double line separates the groups from the two experiments.
When the average tumor volume in a group was near 600 mm^3, the mice in that group were euthanized by isoflurane inhalation and cervical dislocation.
The order of effectiveness of the various treatments was evaluated two ways: 1) the average tumor volume in each group on a single time point (day); and 2) time for the average tumor volume in each group to reach 500 mm^3 (see the dotted line in FIG. 11E).
Leucovorin was also purchased from Sigma-Aldrich (Cat. No. F8259) and was formulated in 0.9% Sodium Chloride Injection USP at 2 mg/ml (for 10 mg/kg dosing).
5-FU and leucovorin were each administered i.p. at 10 mg/kg daily for five days. Oxaliplatin was administered i.p. at 5 mg/kg, 10 mg/kg, or 15 mg/kg in one dose on day 1.
Mice were euthanized on day 28 by isoflurane inhalation and cervical dislocation.

[4] = test system: A549 Non-Small Cell Lung Cancer (NSCLC) Xenograft; assay: A549 non-small cell lung cancer (NSCLC) xenograft model, tumor volume; assay type: in vivo, SCID mice; conditions: day 28; FGFR1-ECD.339-Fc 15 mg/kg and carboplatin 25 mg/kg i.p. 2x/wk from day 7 x 3 wks; paclitaxel 30 mg/kg i.p. 2x/wk from day 8 x 3 wks
[5] = test system: Colo205 Colon Cancer Xenograft; assay: Colo205 colon cancer xenograft model, tumor volume; assay type: in vivo, SCID mice; conditions: day 17; FGFR1-ECD.339-Fc 15 mg/kg i.p. 2x/wk x 4 wks; 5-FU and leucovorin 10 mg/kg each i.p. daily x 5 days; oxaliplatin 15 mg/kg twice per week
[6] = test system: JIMT-1 Breast Cancer Xenograft; assay: JIMT-1 breast cancer xenograft model, tumor volume; conditions: Day 21; FGFR1-ECD.339-Fc 15 mg/kg i.p. 2x/wk; doxorubicin 0.5 mg/kg 1x/wk; paclitaxel 30 mg/kg 2x/wk; each x 5 wks from day 7
Description: Six week old female SCID mice were purchased from Charles River Laboratories (Wilmington, Mass.) and were acclimated for 1 week before the start of the study. […] The cells were cultured for ten passages in DMEM+10% FBS, 1% L-glutamine, and 1% penicillin/streptomycin at 37° C. in a humidified atmosphere with 5% CO2. When the cultured cells reached 85-90% confluence, cells were harvested and resuspended in cold Ca^2+ and Mg^2+ free phosphate buffered saline (PBS) containing 50% Matrigel at 5×10^7 cells per milliliter. The cells were implanted subcutaneously over the right flank of the mice at 5×10^6 cells/100 μl/mouse. One day after tumor implantation, mice were randomized according to body weight at 10 mice per group.
FGFR1-ECD.339-Fc was formulated in 0.9% Saline for Injection USP at 3 mg/ml and administered intraperitoneally (i.p.) at 15 mg/kg (300 μg/100 μl/mouse) twice per week for five weeks beginning on day 7. […] Paclitaxel was administered at 30 mg/kg (60 μg/200 μL per mouse) twice per week for five weeks beginning on day 7.
The tumor volume and body weight of the mice were monitored twice a week throughout the study.
Mice were euthanized on day 42 by isoflurane inhalation and cervical dislocation.

[7] = day 49, FGFR1-ECD.339-Fc alone 15 mg/kg i.p. 2x/wk x 6 wks
[8] = day 24, FGFR1-ECD.339-Fc 15 mg/kg i.p. 3x/wk x 4 wks, bevacizumab 1 mg/kg i.p. 2x/wk x 4 wks, 5-Fu/LV 10 mg/kg each i.p. q.d. x 5 days

FGFR1-ECD.339-Fc: human FGFR1 extracellular domain ending at amino acid 339 fused to an Fc; SEQ ID NO: 6 (mature form)
Fractional tumor volume (FTV), each treatment alone [1]: 0.68 | Mean Tumor volume mm^3(±SD) [1]: 557 (±151) mm^3 | Tumor growth inhibition (%) [1]: 33% | Tumor inhibition over the course of the study (mean tumor volume) ([2]; FIGS. 2A, 3A, 4A, FGFR1-ECD.339-Fc 15 mg/kg, pemetrexed alone at the low or medium dose (62.5 or 125 mg/kg), combination dosed concurrently): resulted in tumor inhibition | Fractional tumor volume (FTV), each treatment alone ([2]; day 49, FGFR1-ECD.339-Fc 15 mg/kg, pemetrexed 62.5 mg/kg): 0.68 | Fractional tumor volume (FTV), each treatment alone ([2]; day 49, FGFR1-ECD.339-Fc 15 mg/kg, pemetrexed 125 mg/kg): 0.68 | Fractional tumor volume (FTV), each treatment alone ([2]; day 49, FGFR1-ECD.339-Fc 15 mg/kg, pemetrexed 250 mg/kg): 0.68 | Mean Tumor volume mm^3(±SD) [2, 7]: 630.4 (±461.5) mm^3 | Tumor growth inhibition (%) [2, 7]: 31% | Fractional tumor volume (FTV), each treatment alone ([3]; Day 16, FGFR1-ECD.339-Fc 15 mg/kg i.p. 3x/wk x 4 wks, 5-FU/LV 10 mg/kg each i.p. q.d. x 5 days): 0.76 | Fractional tumor volume (FTV), each treatment alone ([3]; Day 16, FGFR1-ECD.339-Fc 15 mg/kg i.p. 3x/wk x 4 wks, 5-FU/LV 20 mg/kg each i.p. q.d. x 5 days): 0.76 | Fractional tumor volume (FTV), each treatment alone ([3]; Day 16, FGFR1-ECD.339-Fc 15 mg/kg i.p. 3x/wk x 4 wks, 5-FU/LV 30 mg/kg each i.p. q.d. x 5 days): 0.76 | Fractional tumor volume (FTV), each treatment alone ([3]; Day 24, FGFR1-ECD.339-Fc 15 mg/kg i.p. 3x/wk x 4 wks, bevacizumab 1 mg/kg i.p. 2x/wk x 4 wks, 5-Fu/LV 10 mg/kg each q.d. x 5 days): 0.73 | Order of antitumor effect of the treatment groups ([3]; by average tumor volume on a single day and by time for average tumor volume to reach 500 mm^3 (FIG. 11E), value gives the next-ranked group): >vehicle | Fractional tumor volume (FTV), each treatment alone ([3]; day 17, FGFR1-ECD.339-Fc 15 mg/kg i.p. 2x/wk x 4 wks, 5-FU and leucovorin 10 mg/kg each i.p. daily x 5 days, oxaliplatin 5 mg/kg i.p. one dose day 1): 0.77 | Fractional tumor volume (FTV), each treatment alone ([3]; day 17, FGFR1-ECD.339-Fc 15 mg/kg i.p. 2x/wk x 4 wks, 5-FU and leucovorin 10 mg/kg each i.p. daily x 5 days, oxaliplatin 10 mg/kg i.p. one dose day 1): 0.77 | Mean Tumor volume mm^3(±SD) [3, 8]: 509 (±144) mm^3 | Tumor growth inhibition (%) [3, 8]: 26% | Fractional tumor volume (FTV), each treatment alone [4]: 0.58 | Fractional tumor volume (FTV), each treatment alone [5]: 0.77 | Fractional tumor volume (FTV), each treatment alone [6]: 0.93
